pEC50: −log10 of the molar value. Where two headings read alike, the source gives them in different places.
Key:
ER = biological target: T1, ER (Homo sapiens, UniProt P03372); experiment: MVLN assay (estrogen-responsive luciferase reporter transactivation); assay type: cell-based; details: for MVLN assay Maximum induction (%): percentage of the maximum induction (luciferase) of tested compound to that of E2, 2 days exposure; for Luciferase activity on coexposure with OHT: OHT 10 nM coexposed with 100 μM PFHxI, 100 μM PFOI, 100 μM PFBDI, 20 μM PFHxDI or 40 μM PFODI; for MVLN assay Relative potency: footnote: ratio of EC50 of E2 to that of test compound, text: based on EC20; for MVLN assay EC20: luciferase activity, 2 days, from Hill slope and EC50; for Luciferase induction / estrogenic effect in the MVLN assay (in words): within the tested concentration ranges
T1 construct: This cell line was stably transfected with the luciferase reporter gene and estrogen-responsive element derived from the Xenopus vitellogenin A2 gene; endogenous in cells; host or cells: MVLN cells (provided by J.P. Giesy)
T1 sequence (P03372 1-595): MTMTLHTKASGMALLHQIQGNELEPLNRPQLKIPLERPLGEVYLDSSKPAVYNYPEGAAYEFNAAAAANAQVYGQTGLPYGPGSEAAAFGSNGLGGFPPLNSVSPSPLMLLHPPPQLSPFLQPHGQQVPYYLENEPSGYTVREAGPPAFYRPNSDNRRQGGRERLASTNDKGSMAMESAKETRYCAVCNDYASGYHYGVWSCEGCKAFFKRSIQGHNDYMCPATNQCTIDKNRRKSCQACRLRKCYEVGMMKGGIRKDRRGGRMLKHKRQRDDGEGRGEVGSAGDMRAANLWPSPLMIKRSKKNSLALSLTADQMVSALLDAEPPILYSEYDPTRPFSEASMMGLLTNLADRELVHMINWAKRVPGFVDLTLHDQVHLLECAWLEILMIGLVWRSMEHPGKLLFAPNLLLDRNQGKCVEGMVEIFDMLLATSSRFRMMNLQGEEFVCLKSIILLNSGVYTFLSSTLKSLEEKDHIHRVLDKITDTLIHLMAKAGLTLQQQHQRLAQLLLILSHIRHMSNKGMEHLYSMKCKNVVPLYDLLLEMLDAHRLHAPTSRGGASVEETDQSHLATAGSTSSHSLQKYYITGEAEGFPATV
Protocol: (§1) Cell culture. Human MCF-7BUS breast adenocarcinoma cells and MVLN cells were cultured in 100-mm culture dishes in a humidified atmosphere of 5% CO2 at 37°C. Cells were maintained in Dulbecco’s modified Eagle’s medium (DMEM)/F-12 (Hyclone, Logan, UT, USA) containing 10% fetal bovine serum, 100 U/mL streptomycin-penicillin, 2 mM L-glutamine, and 1% insulin-transferrin-selenium supplement (all from Gibco, Grand Island, NY, USA).
MVLN assay. The MVLN cell line was kindly provided by J.P. Giesy (Michigan State University, East Lansing, MI, USA). This cell line was stably transfected with the luciferase reporter gene and estrogen-responsive element derived from the Xenopus vitellogenin A2 gene. […] Cells were seeded in the interior 60 wells of a 96-well ViewPlate (Packard Instrument Company, Boston, MA, USA) at a density of 7 × 10^4 cells/well, starved in SF medium for 48 hr, and exposed to test compounds for 2 days. […] Luciferase activity was measured with the LucLite kit (Packard Instruments) according to the manufacturer’s protocol. We measured luminescence by microplate reader (Varioskan Flash) and integrated the luminescence signal for 10 sec. Total protein content was measured by the Bradford assay (Tiangen, Beijing, China) to normalize luminescent units. The results are given as relative luminescent unit per microgram protein. The maximal induction of positive control (corrected for solvent control, 0.1–0.2% ethanol) was set as 100%, and the responses of other chemicals were converted to a percentage of the maximum level. Three replicates were used in each experiment. The cytotoxicity of tested chemicals was examined by WST-1 kit in parallel and routinely observed under microscope to identify the exposure concentration range.
(§2) The concentration–response analyses were performed with four-parameter logistic curve regression analysis according to the following formula:
(§3) y = minimum + (maximum – minimum) ÷ [1 + (x/EC50)^Hill slope], [1]
(§4) where y is the response value, x is the log concentration of the test compound, and EC50 is the concentration that induces half of the maximum proliferation effect or luciferase activity.
EC50 values were calculated from this nonlinear regression model. EC20 were calculated as
ECx = [x/(100 – x)]^(1/Hill slope) × EC50, [2]

MCF-7BUS cells = experiment: E-screen assay (MCF-7BUS cell proliferation, WST-1); assay type: cell-based, Human; details: for E-screen Maximum induction (%): percentage of the maximum proliferation effect of tested compound to that of E2, 6 days exposure; for pEC50: Homo sapiens, MCF7/BUS, 144 h, read-out: E-screen EC50; for E-screen Relative potency: ratio of EC50 of E2 to that of test compound; for Proliferation / estrogenic effect in the E-screen assay (in words): within the tested concentration ranges
Protocol: as §1
E-screen assay. MCF-7BUS cells were kindly provided by A.M. Soto and C. Sonnenschein (Tufts University School of Medicine, Boston, MA, USA). In response to ERα agonists, the mitotic effect leads to the proliferation of MCF-7BUS cells. […] Cells were trypsinized and plated into the interior 60 wells of 96-well plates at the density of 3,000 cells/well. Before each experiment, cells were starved in steroid-free (SF) medium for 48 hr to minimize the basal hormonal activity during assays. SF medium consisted of phenol red–free DMEM/F-12 (Hyclone) supplemented with 5% dextran-charcoal-treated fetal bovine serum (Hyclone), 100 U/mL streptomycin-penicillin, and 2 mM L-glutamine. […] We used a WST-1 proliferation kit (Roche Diagnostics, Mannheim, Germany) to assess proliferation after 6 days of exposure according to the kit instructions. The WST-1 assay is based on the enzymatic cleavage of the tetrazolium salt WST-1 to formazan by cellular mitochondrial dehydrogenases present in viable cells. The absorbance of the WST-1 solution was detected by a microplate reader (Varioskan Flash, Thermo Fisher Scientific, Waltham, MA, USA) at 450 nm, with the reference wave length at 690 nm. The cell proliferation effect was calculated from the solvent control (0.1% ethanol)-corrected absorbance and expressed as the percentage of maximal absorbance of the positive control. Three replicates were used in each experiment.
as §2, §3, §4
EC50 values were calculated from this nonlinear regression model. EC20 were calculated as […]

EGR3 = experiment: Expression of estrogen-responsive gene EGR3 (quantitative RT-PCR); assay type: cell-based, Human; details: MCF-7 cells, 48 hr, vs 0.1% ethanol; 50 μM PFBI, PFHxI, PFOI, PFBDI, PFOA, PFOC, PFOB, 1-iodohexane, 4:2 FTI, 6:2 FTI; 40 μM PFDI, PFDoI, PFODI, 8:2 FTI, 10:2 FTI; 20 μM PFHxDI; 100 pM E2
Protocol: RNA isolation and reverse transcription polymerase chain reaction (RT-PCR). MCF-7BUS cells were seeded in six-well plates at the density of 1.0 × 10^6 cells per well, starved in SF medium for 48 hr, and exposed to test compounds for 48 hr. First, cells were rinsed twice with cold phosphate-buffered saline, and total RNA was isolated using Trizol reagent (Invitrogen Inc., Carlsbad, CA, USA) following the manufacturer’s protocol. The 260 nm and 280 nm absorbance reading of total RNA was performed using a Nanodrop spectrophotometer (Thermo Scientific, Waltham, MA, USA). The concentration of RNA was quantified by the reading at 260 nm.
We used a two-step quantitative RT-PCR to quantify gene expression. Total RNA was converted to cDNA using M-MLV (Moloney murine leukemia virus) reverse transcriptase (Promega, Madison, WI, USA) with oligo dT(15), following the manufacturer’s instructions. The final cDNA solution was diluted five times with DNase/RNase-free water (Gibco). Quantitative PCR was performed with a Stratagene MX3005 thermal cycler (Stratagene, La Jolla, CA, USA). PCR reaction mixtures (25 μL) contained 12.5 μL GoTaq Green Master Mix (Promega), 2 μL diluted cDNA, and 0.2 μM sense/antisense primers. The thermal cycle was 5 min at 95°C, followed by 45 cycles of 15 sec at 95°C, 30 sec at 55°C, and 30 sec at 72°C. The primer sequences of early growth response protein 3 (EGR3) were derived from [Terasaka et al. (2004)]. We designed the primers of internal gene β-actin and trefoil factor 1 (TFF1; pS2) with Primer Premier 5 software (Premier Biosoft International, Palo Alto, CA, USA). The primer sequences were as follows: for β-actin (NM_001101), 5´-CACTCT[…]TCCTTCC-3´ (forward) and 5´-[…][…]-3´ (reverse); for EGR3 (NM_004430), 5´-CCATGATTC[…]-3´ (forward) and 5´-GTGGATCTGCTTGTCTTTGAATG-3´ (reverse); and for TFF1 (NM_003225), 5´-AGAAGCG […]-3´ (forward) and 5´-[…][…]-3´ (reverse). The quantification of target gene expression was based on a comparative cycle threshold (Ct) value. We normalized the expression level of each target gene to its reference gene β-actin. The fold change of the target genes was analyzed by the 2^−ΔΔCt method ([Livak and Schmittgen 2001]). We used melting curve analysis and agarose gel electrophoresis to verify the correct PCR products.

| pEC50 (MCF-7BUS cells; MCF-7BUS proliferation, 6 days) | SMILES | MVLN assay Maximum induction (%) (ER) | E-screen Maximum induction (%) (MCF-7BUS cells) | pEC50 (ER) | Luciferase activity on coexposure with OHT (ER) | MVLN assay Relative potency (ER) | MVLN assay EC20 (ER) | pEC50 (MCF-7BUS cells) | E-screen Relative potency (MCF-7BUS cells) | EGR3 mRNA expression, fold up-regulation (EGR3) | Luciferase induction / estrogenic effect in the MVLN assay (in words) (ER) | Proliferation / estrogenic effect in the E-screen assay (in words) (MCF-7BUS cells) |
| --- | --- | --- | --- | --- | --- | --- | --- | --- | --- | --- | --- | --- |
| – | FC(F)(F)C(F)(F)C(F)(F)C(F)(F)CCI [4:2 FTI, 1H,1H,2H,2H-perfluorohexyl iodide] | NDe (The maximum relative luciferase activity was < 5%) | NDd (The maximum relative proliferation effect was < 7%) | – | – | – | – | – | – | – | – | – |
| – | FC(F)(F)C(F)(F)C(F)(F)C(F)(F)C(F)(F)C(F)(F)CCI [6:2 FTI, 1H,1H,2H,2H-perfluorooctyl iodide] | NDe (The maximum relative luciferase activity was < 5%) | NDd (The maximum relative proliferation effect was < 7%) | – | – | – | – | – | – | – | – | – |
| – | FC(F)(F)C(F)(F)C(F)(F)C(F)(F)C(F)(F)C(F)(F)C(F)(F)C(F)(F)CCI [8:2 FTI, 1H,1H,2H,2H-perfluorodecyl iodide] | NDe (The maximum relative luciferase activity was < 5%) | NDd (The maximum relative proliferation effect was < 7%) | – | – | – | – | – | – | – | – | – |
| – | FC(F)(F)C(F)(F)C(F)(F)C(F)(F)C(F)(F)C(F)(F)C(F)(F)C(F)(F)C(F)(F)C(F)(F)CCI [10:2 FTI, 1H,1H,2H,2H-perfluorododecyl iodide] | NDe (The maximum relative luciferase activity was < 5%) | NDd (The maximum relative proliferation effect was < 7%) | – | – | – | – | – | – | – | – | – |
| 11.51 | C[C@]12CC[C@@H]3c4ccc(O)cc4CC[C@H]3[C@@H]1CC[C@@H]2O [E2, 17β-estradiol, reference compound] | – | 100% | – | – | – | – | – | – | – | – | – |
| – | FC(F)(I)C(F)(F)C(F)(F)C(F)(F)I [PFBDI, Octafluoro-1,4-diiodobutane] | 21% | 97% | 4.53 | marked reduction of luciferase activity | 0.3 × 10^–6 | 13.8 µM | 5.84 | 2.2 × 10^–6 | 2.4 fold | – | – |
| – | FC(F)(I)C(F)(F)C(F)(F)C(F)(F)C(F)(F)C(F)(F)I [PFHxDI, Dodecafluoro-1,6-diiodohexane] | 73% | 100% | 5.95 | marked reduction of luciferase activity | 1.1 × 10^–5 | 0.38 µM | 8.12 | 4.2 × 10^–4 | 9.1 fold | – | – |
| – | FC(F)(F)C(F)(F)C(F)(F)C(F)(F)C(F)(F)C(F)(F)I [PFHxI, 1-iodoperfluorohexane] | 47% | 99% | 4.57 | marked reduction of luciferase activity | 0.29 × 10^–6 | 14.1 µM | 6.20 | 4.9 × 10^–6 | 2.4 fold | induced luciferase activity in a dose-related manner | produced full concentration–response curves |
| – | FC(F)(I)C(F)(F)C(F)(F)C(F)(F)C(F)(F)C(F)(F)C(F)(F)C(F)(F)I [PFODI, Hexadecafluoro-1,8-diiodooctane] | 38% | 105% | 5.54 | marked reduction of luciferase activity | 3.8 × 10^–6 | 1.07 µM | 7.36 | 7.2 × 10^–5 | 11.2 fold | – | – |
| – | FC(F)(F)C(F)(F)C(F)(F)C(F)(F)C(F)(F)C(F)(F)C(F)(F)C(F)(F)I [PFOI, 1-iodoperfluorooctane] | 25% | 101% | 4.45 | marked reduction of luciferase activity | 0.2 × 10^–6 | 20.4 µM | 5.94 | 2.7 × 10^–6 | 3.6 fold | induced luciferase activity in a dose-related manner | produced full concentration–response curves |

Reference: PMC3261944, “The in Vitro Estrogenic Activities of Polyfluorinated Iodine Alkanes” (Environmental Health Perspectives, 2011)
